ChEMBL document CHEMBL4190235, “Polysubstituted 2-aminoimidazoles as anti-biofilm and antiproliferative agents: Discovery of potent lead” (Eur J Med Chem, 2017)
Blank lines part the entries; values can stand above or below the compound they belong to. Calls of active or inactive are those of the source. The calls are words filed in the database; no cut-off is given here.

What was measured:
A-375 [1] = experiment: Antiproliferative activity against human A375 cells assessed as reduction in colony forming ability at IC50 concentration after 10 to 14 days by crystal violet-staining based assay; assay type: functional, cell-based
MIA PaCa-2 [2] = experiment: Cytotoxicity against human MIAPaCa2 cells assessed as reduction in cell viability at IC50 concentration after 24 hrs by calcein AM-dye based assay; assay type: functional
MIA PaCa-2 [3] = experiment: Cell cycle arrest in human MIAPaCa2 cells assessed as accumulation at G0/G1 phase at IC50 concentration after 48 hrs by propidium iodide staining based flow cytometry (reference value: 66.05 +/- 2.2%); assay type: functional
A-375 [4] = experiment: Cell cycle arrest in human A375 cells assessed as accumulation at G0/G1 phase at IC50 concentration after 48 hrs by propidium iodide staining based flow cytometry (reference value: 64.18 +/- 2.6%); assay type: functional
MIA PaCa-2 [5] = experiment: Cell cycle arrest in human MIAPaCa2 cells assessed as accumulation at S phase at IC50 concentration after 48 hrs by propidium iodide staining based flow cytometry (reference value: 17.29 +/- 1.8%); assay type: functional
A-375 [6] = experiment: Cell cycle arrest in human A375 cells assessed as accumulation at G2/M phase at IC50 concentration after 48 hrs by propidium iodide staining based flow cytometry (reference value: 8.18 +/- 2.2%); assay type: functional
A-375 [7] = experiment: Cell cycle arrest in human A375 cells assessed as accumulation at subG1 phase at IC50 concentration after 48 hrs by propidium iodide staining based flow cytometry (reference value: 1.1 +/- 0.4%); assay type: functional
MIA PaCa-2 [8] = experiment: Antiproliferative activity against human MIAPaCa2 cells assessed as reduction in colony forming ability at IC50 concentration after 10 to 14 days by crystal violet-staining based assay; assay type: functional, cell-based
Staphylococcus aureus [9] = experiment: Antibiofilm activity against Staphylococcus aureus SH1000 after 48 hrs by crystal violet staining based method; assay type: functional
Salmonella typhimurium [10] = experiment: Inhibition of planktonic growth of Salmonella typhimurium ATCC 14028; assay type: organism-based, Salmonella enterica subsp. enterica serovar Typhimurium; conditions: Salmonella enterica
Pseudomonas aeruginosa [11] = experiment: Inhibition of planktonic growth of Pseudomonas aeruginosa PA14 cells; assay type: organism-based
MIA PaCa-2 [12] = experiment: Antiproliferative activity against human MIAPaCa2 cells after 48 hrs by MTT assay; assay type: functional, cell-based; conditions: MIA PaCa-2, 48 h
A-375 [13] = experiment: Antiproliferative activity against human A375 cells after 48 hrs by MTT assay; assay type: functional, cell-based; conditions: A-375, 48 h
MIA PaCa-2 [14] = experiment: Cell cycle arrest in human MIAPaCa2 cells assessed as accumulation at subG1 phase at IC50 concentration after 48 hrs by propidium iodide staining based flow cytometry (reference value: 1.53 +/- 0.4%); assay type: functional
Pseudomonas aeruginosa [15] = experiment: Antibiofilm activity against Pseudomonas aeruginosa PA14 after 24 hrs by crystal violet staining based method; assay type: functional
A-375 [16] = experiment: Cell cycle arrest in human A375 cells assessed as accumulation at S phase at IC50 concentration after 48 hrs by propidium iodide staining based flow cytometry (reference value: 30.48 +/- 1.4%); assay type: functional
MIA PaCa-2 [17] = experiment: Cell cycle arrest in human MIAPaCa2 cells assessed as accumulation at G2/M phase at IC50 concentration after 48 hrs by propidium iodide staining based flow cytometry (reference value: 16.66 +/- 0.8%); assay type: functional
Staphylococcus aureus [18] = experiment: Inhibition of planktonic growth of Staphylococcus aureus SH1000; assay type: organism-based
Salmonella typhimurium [19] = experiment: Antibiofilm activity against Salmonella typhimurium ATCC 14028 after 24 hrs by crystal violet staining based method; assay type: functional, Salmonella enterica subsp. enterica serovar Typhimurium
A-375 [20] = experiment: Cytotoxicity against human A375 cells assessed as reduction in cell viability at IC50 concentration after 24 hrs by calcein AM-dye based assay; assay type: functional

IC50 (MIA PaCa-2 [12]): 2.9 µM
IC50 (A-375 [13]): 1.3 µM
SMILES: Cc1ccc(Cc2nc(N)n(CC(=O)Nc3ccc(C)cc3)c2-c2ccccc2Br)cc1
Activity (A-375 [1]): Active
Activity (MIA PaCa-2 [2]): Active
Activity (MIA PaCa-2 [3]): 36.39%
Activity (A-375 [4]): 36.34%
Activity (MIA PaCa-2 [5]): 17.04%
Activity (A-375 [6]): 66.85%
Activity (A-375 [7]): 24.71%
Activity (MIA PaCa-2 [8]): Active
MBIC50 (Staphylococcus aureus [9]): 5.5 µM
IC50 (Salmonella typhimurium [10]): > 400 µM
IC50 (Pseudomonas aeruginosa [11]): 10.9 µM
Activity (MIA PaCa-2 [14]): 16.33%
MBIC50 (Pseudomonas aeruginosa [15]): 191 µM
Activity (A-375 [16]): 26.59%
Activity (MIA PaCa-2 [17]): 48.99%
IC50 (Staphylococcus aureus [18]): 5.8 µM
MBIC50 (Salmonella typhimurium [19]): 3.6 µM
Activity (A-375 [20]): Active

IC50 (MIA PaCa-2 [12]): 3.2 µM
IC50 (A-375 [13]): 1.4 µM
SMILES: COc1ccc(Cc2nc(N)n(CC(=O)Nc3ccccc3)c2-c2ccccc2Br)cc1
Activity (A-375 [1]): Active
Activity (MIA PaCa-2 [2]): Active
Activity (MIA PaCa-2 [3]): 50.41%
Activity (A-375 [4]): 43.56%
Activity (MIA PaCa-2 [5]): 24.5%
Activity (A-375 [6]): 55.33%
Activity (A-375 [7]): 19.88%
Activity (MIA PaCa-2 [8]): Active
MBIC50 (Staphylococcus aureus [9]): 4.3 µM
IC50 (Salmonella typhimurium [10]): 46.4 µM
IC50 (Pseudomonas aeruginosa [11]): 13.1 µM
Activity (MIA PaCa-2 [14]): 11.21%
MBIC50 (Pseudomonas aeruginosa [15]): 12.6 µM
Activity (A-375 [16]): 32.1%
Activity (MIA PaCa-2 [17]): 40.45%
IC50 (Staphylococcus aureus [18]): 23.3 µM
MBIC50 (Salmonella typhimurium [19]): 17 µM
Activity (A-375 [20]): Active

IC50 (MIA PaCa-2 [12]): 6.9 µM
IC50 (A-375 [13]): 5.8 µM
SMILES: Nc1nc(CC2CC2)c(-c2ccccc2Br)n1CC(=O)Nc1ccccc1
MBIC50 (Staphylococcus aureus [9]): 29.2 µM
IC50 (Salmonella typhimurium [10]): > 400 µM
IC50 (Pseudomonas aeruginosa [11]): 155 µM
MBIC50 (Pseudomonas aeruginosa [15]): 86.3 µM
IC50 (Staphylococcus aureus [18]): 130 µM
MBIC50 (Salmonella typhimurium [19]): 107.6 µM
